Results: patent EP3570868B1, “[…] ANTIMICROBIAL PEPTIDES AND THEIR APPLICATIONS FOR THE TREATMENT AND PREVENTION OF MUSCU[…]” (Ustav Organicke Chemie a Biochemie AV CR, v.v.i., priority 2017, dated 2018)
Square brackets hold non-standard residues; d marks the D form. Peptide text beside a SMILES is read from it. βAla = NCCC(=O)O

Legend:
Bacillus subtilis = format: cell-based; conditions: B.s.; 37° C for 20 h
Protocol: (§1) Gram-positive bacteria (Bacillus subtilis, Staphylococcus aureus, Staphylococcus epidermidis and Enterococcus faecalis), Gram-negative bacteria (Escherichia coli and Pseudomonas aeruginosa) and the yeast (Candida albicans) were grown to exponential phase and then were diluted with fresh medium. BHI medium (Oxoid, Great Britain) was used for Enterococcus faecalis; YPD medium containing yeast extract, peptone and glucose was used for Candida albicans and LB medium (Sigma, Czech Republic) was used for the remaining microorganisms. Then the microorganisms were added to the solutions of the tested antimicrobial peptides in LB medium in multi-well plates, so that the final peptide concentration it the wells was in the range of 0.5 to 100 µmοl.1^-1. The plates were incubated at 37° C for 20 h while being continuously shaken in a Bioscreen C (Oy Growth Curves AB Ltd., Helsinki, Finland). Absorbance was measured at 540 nm every 15 min. Antimicrobial activity (Table 2) was determined as a quantitative minimum inhibitory concentration (MIC) by observing bacterial growth in the presence of different concentrations of tested peptides. In the experiments, ca 10^5 CFU of bacteria or candida per well were used. Tetracycline in a concentration range of 0.5 - 100 µmol.1^-1 was used as a standard.
(§2) Clinical isolates of bacteria were obtained from University Hospital in Motol, Prague, Czech Republic and from Liberec Regional Hospital, Czech Republic. Methicillin resistant Staphylococcus aureus (MRSA) 6271 and Pseudomonas aeruginosa 5482 were from the Czech National Collection of Type Cultures, the National Institute of Public Health, Prague, Czech Republic. Other bacteria were from the Czech Collection of Microorganisms, Brno, Czech Republic. Candida albicans came from the Faculty of Medicine, Palacky University, Olomouc, Czech Republic. Candida tropicalis ATCC 750 and Candida glabrata DSY 565 were obtained from the Institute of Physiology, Academy of Sciences of the Czech Republic.

Candida albicans = format: cell-based; conditions: C.a.; 37° C for 20 h
Protocol: as §1, §2

Escherichia coli = format: cell-based; conditions: E.c.; 37° C for 20 h
Protocol: as §1, §2

[1] = tested on: MRSA (clin. isolate Liberec); format: cell-based, Staphylococcus aureus; conditions: 37° C for 20 h
Protocol: as §1, §2

[2] = tested on: MRSA (clin. isolate Motol); format: cell-based, Staphylococcus aureus; conditions: 37° C for 20 h
Protocol: as §1, §2

MRSA 6271 [3] = format: cell-based, Staphylococcus aureus; conditions: 37° C for 20 h
Protocol: as §1, §2

[4] = tested on: S.e. (clin. isolate Motol); format: cell-based, Staphylococcus epidermidis; conditions: 37° C for 20 h
Protocol: as §1, §2

[5] = tested on: E.f. (clin. isolate Motol); format: cell-based, Enterococcus faecalis; conditions: 37° C for 20 h
Protocol: as §1, §2

[6] = tested on: P.a. (clin. isolate Liberec); format: cell-based, Pseudomonas aeruginosa; conditions: 37° C for 20 h
Protocol: as §1, §2

P.a. 5482 = format: cell-based, Pseudomonas aeruginosa; conditions: 37° C for 20 h
Protocol: as §1, §2

human red blood cells = experiment: Determination of haemolytic activity; format: cell-based; conditions: human red blood cells (5% v/v), 1 h at 37 °C; concentration for lysis of 50% of erythrocytes
Protocol: The peptides in the concentrations 2-400 µmol.1^-1 were incubated with the suspension of human red blood cells (5% v/v) for 1 h at 37 °C in a physiological solution at a final volume of 0.2 ml. The samples were then centrifuged for 5 min at 250 g. The absorbance of the supernatant was determined at 540 nm. 0.2% (v/v) TRITON X100 was used as a control for 100% haemolysis. Haemolytic activity is expressed as the peptide concentration required for lysis of 50% of human erythrocytes in the assay (LC50). Table 2. Antimicrobial and haemolytic activity of I up to XIII peptides and tetracycline.

[7] = tested on: S. epidermidis (clin. isolate Motol); experiment: Induced osteomyelitis model in femur heads: effect of peptides released from carrier on infection in the bone graft; format: cell-based; conditions: ChronOS (300 mg); 10 mg, separate holes; two days; carrier without peptide 1,2x10^5
Protocol: (§3) 3-4 holes of a diameter of 5 mm and a depth of 10 mm are drilled with a surgical spoon into a femur head under sterile conditions (spongy part of the bone in the resection site). Thereafter, this bone graft is put into a beaker of appropriate size and lined with sterile gauze squares. The gauze is moistened with sterile physiological saline to prevent drying of the bone. Then, suspension of multiplied microbes in an appropriate medium (50-100 µl) at a concentration of 10^7 to 10^9 CFU is sequentially applied to the prepared holes in the bone graft and allowed to incubate for 1-2 days. […] Beaker with the infected bone graft is covered with a sterile Petri dish. During the experiment, induced osteomyelitis models are kept protected from light at room temperature.
(§4) After the incubation, the infected holes in the bone are filled with a mixture of the local carrier, and a peptide selected from the series of peptides of formulae I to XIII or their specific enantiomers (Figure 1). For comparison, one of the holes is filled with the local carrier without peptide, or the carrier filled with antibiotic (vancomycin or gentamicin). A commercially available two-component material supplied by Synthes (Synthes GmbH, Switzerland) under the name ChronOS Inject was used as the carrier. Its solid component comprises a mixture of calcium phosphates CaHPO4.2H2O and Ca3(PO4)2 and additives, the liquid component is 0.5% (vol./vol.) solution of hyaluronic acid.
(§5) After two days, the filling is thoroughly removed with a surgical spoon and empty holes are wiped with moistened sterile cotton swab, which is then extracted into 400 µl physiological saline. The extract is diluted in a tenfold serial dilution and each diluted suspension is cultured on agar in Petri dishes; the culture is evaluated on the following day. […] The result of the peptide effect is also compared with the result of the effect of antibiotics. In some cases, microbiological examination of the bone tissue taken with a surgical spoon from a deeper area of the drilled holes is performed. […] Table 3. Evaluation of the effect of antimicrobial peptides released from the carrier on an infection in the bone graft. Effect of antimicrobial activity is expressed in the number of CFU (colony-forming units) in the infected hole after swabbing.

[8] = tested on: MRSA (clin. isolate Liberec); experiment: as above; format: cell-based, Staphylococcus aureus; conditions: ChronOS (200 mg); 10 mg, separate holes; two days; carrier without peptide 3,4x10^7
Protocol: as §3, §4, §5

MRSA 6271 [9] = experiment: as above; format: cell-based, Staphylococcus aureus; conditions: ChronOS (200 mg), two days, carrier without peptide 7,0x10^7
Protocol: as §3, §4, §5

[10] = tested on: MRSA (clin. isolate Motol); experiment: Biofilm formation on the surface of a bone cement implant in femur heads; format: cell-based, Staphylococcus aureus; conditions: two days
Protocol: (§6) The resulting elastic paste is placed into a 2 ml plastic syringe (without needle) and pressed into the infected holes in the spongy part of the bone, where it polymerizes and hardens. For comparison, other similarly infected holes are filled with cement containing only an antibiotic or antimycotic agent. For comparison, a Vancogenx® cement (Tecresa S. p. A., Italy) is used, made from a mixture of a powdered polymer component containing vancomycin and gentamicin. The mixture in an amount of 125 mg is mixed with liquid monomer (50-60 µl) and then pressed into the openings as described above. In another embodiment, the cements are applied to uninfected holes, allowed to harden, and then microbes are pipetted into the hole excavated between implants. From there they penetrate through bone tissue and settle on the implants with consequent formation of biofilms.
(§7) After two days, implants are removed with metal spikes and tweezers, mechanically cleaned from debris of bone tissue, and washed four times with physiological saline (0.5 ml) in plastic tubes to remove any residual planktonic microbes or bone cells from their surface. The implants in closed tubes with 0.4 ml saline are then sonicated four times for 3 min with occasional shaking. The of microbial biofilm on the surface of the implant is thus disrupted and microbes are loosed into the physiological saline. […]

MRSA 6271 [11] = experiment: as above; format: cell-based, Staphylococcus aureus; conditions: two days
Protocol: as §6
(§8) After two days, implants are removed with metal spikes and tweezers, mechanically cleaned from debris of bone tissue, and washed four times with physiological saline (0.5 ml) in plastic tubes to remove any residual planktonic microbes or bone cells from their surface. The implants in closed tubes with 0.4 ml saline are then sonicated four times for 3 min with occasional shaking. The of microbial biofilm on the surface of the implant is thus disrupted and microbes are loosed into the physiological saline. The resulting suspension is subsequently diluted using the tenfold serial dilution for culturing on agar.
(§9) Evaluation of the effect of antimicrobial peptides on the formation of microbial biofilm on the surface of the implant made of the bone cement.

[12] = tested on: Enterococcus faecalis (clin. isolate Motol); experiment: as above; format: cell-based; conditions: two days
Protocol: as §6, §7

P. aeruginosa 5482 [13] = experiment: as above; format: cell-based; conditions: two days
Protocol: (§10) The resulting elastic paste is placed into a 2 ml plastic syringe (without needle) and pressed into the infected holes in the spongy part of the bone, where it polymerizes and hardens. For comparison, other similarly infected holes are filled with cement containing only an antibiotic or antimycotic agent. […] The mixture in an amount of 125 mg is mixed with liquid monomer (50-60 µl) and then pressed into the openings as described above. In another embodiment, the cements are applied to uninfected holes, allowed to harden, and then microbes are pipetted into the hole excavated between implants. From there they penetrate through bone tissue and settle on the implants with consequent formation of biofilms.
(§11) After two days, implants are removed with metal spikes and tweezers, mechanically cleaned from debris of bone tissue, and washed four times with physiological saline (0.5 ml) in plastic tubes to remove any residual planktonic microbes or bone cells from their surface. The implants in closed tubes with 0.4 ml saline are then sonicated four times for 3 min with occasional shaking. The of microbial biofilm on the surface of the implant is thus disrupted and microbes are loosed into the physiological saline. The resulting suspension is subsequently diluted using the tenfold serial dilution for culturing on agar. […]

[14] = tested on: P. aeruginosa (clin. isolate Liberec); experiment: as above; format: cell-based; conditions: two days, cement without peptide N/A
Protocol: as §10, §11

[15] = tested on: Candida tropicalis ATCC 750; experiment: as above; format: cell-based; conditions: two days, cement without peptide 3.7x10^5
Protocol: as §10, §11

[16] = tested on: Candida albicans (clin. isolate Olomouc); experiment: as above; format: cell-based; conditions: two days, cement without peptide 6.0x10^3
Protocol: as §6, §8, §9

[17] = tested on: S. aureus (clin. isolate Liberec); experiment: Induced osteomyelitis model in femur heads: effect of peptides released from carrier on infection in the bone graft; format: cell-based; conditions: ChronOS (200 mg); 10 mg, separate holes; two days; carrier without peptide 3,9x10^6
Protocol: as §3, §4, §5

[18] = tested on: MRSA (clin. isolate Liberec); experiment: Biofilm formation on the surface of a bone cement implant in femur heads; format: cell-based, Staphylococcus aureus; conditions: two days, cement without peptide 8,8x10^3
Protocol: as §6, §7

[19] = tested on: S. epidermidis (clin. isolate Motol); experiment: as above; format: cell-based; conditions: two days, cement without peptide 4.0x10^6
Protocol: as §10, §11

P. aeruginosa 5482 [20] = experiment: Induced osteomyelitis model in femur heads: effect of peptides released from carrier on infection in the bone graft; format: cell-based; conditions: ChronOS (200 mg); V (9 mg); two days; carrier without peptide 1,0x10^9
Protocol: as §3, §4, §5

[21] = tested on: MRSA (clin. isolate Motol); experiment: as above; format: cell-based, Staphylococcus aureus; conditions: ChronOS (200 mg); 10 mg; two days; carrier without peptide 4,8x10^6
Protocol: as §3, §4, §5

[22] = cement without peptide 2.8x10^6

SMILES | Antimicrobial activity MIC (Bacillus subtilis) | Antimicrobial activity MIC (Candida albicans) | Antimicrobial activity MIC (Escherichia coli) | Antimicrobial activity MIC [1] | Antimicrobial activity MIC [2] | Antimicrobial activity MIC (MRSA 6271 [3]) | Antimicrobial activity MIC [4] | Antimicrobial activity MIC [5] | Antimicrobial activity MIC [6] | Antimicrobial activity MIC (P.a. 5482) | Hemolytic activity LC50 (human red blood cells) [µmol/L] | CFU/hole [8] | CFU/implant [16] | also measured
CC[C@H](C)[C@H](NC(=O)[C@H](CCCCN)NC(=O)[C@H](CCCCN)NC(=O)[C@H](CC(C)C)NC(=O)[C@H](CC(C)C)NC(=O)[C@H](CCCCN)NC(=O)[C@H](CCSC)NC(=O)[C@H](Cc1c[nH]c2ccccc12)NC(=O)[C@H](CCCCN)NC(=O)CN)C(=O)N[C@@H](CC(C)C)C(=O)N[C@@H](CCCCN)C(N)=O [III] | 1,8 µmol.l^-1 | 5,7 µmol.l^-1 | 9,0 µmol.l^-1 | 3,6 µmol.l^-1 | 5,7 µmol.l^-1 | 6,3 µmol.l^-1 | 2,3 µmol.l^-1 | 13,3 µmol.l^-1 | 10,0 µmol.l^-1 | 2,8 µmol.l^-1 | 339 | 2,3x10^5 / 2,3x10^5 CFU/hole | 2 CFU/implant | CFU/hole [7]: 0 in all cases CFU/hole; CFU/hole (MRSA 6271 [9]; III (5 mg)): 1,9x10^2 CFU/hole; CFU/hole (MRSA 6271 [9]; III (10 mg)): 7,6x10^2 CFU/hole; CFU/implant ([10]; cement without peptide 3,4x10^5): 0 CFU/implant; CFU/implant (MRSA 6271 [11]; cement without peptide N/A, first experiment with III): 5.1 x 10^3 CFU/implant; CFU/implant (MRSA 6271 [11]; cement without peptide N/A, second experiment with III): 0 CFU/implant; CFU/implant [12, 22]: 0 CFU/implant; CFU/implant ([12]; cement without peptide 2.9x10^5): 0 CFU/implant; CFU/implant (P. aeruginosa 5482 [13]; [22]): 2.6x10^1 CFU/implant; CFU/implant [14]: 1.1x10^3 CFU/implant; CFU/implant [15]: 0 CFU/implant
CC[C@H](C)[C@H](NC(=O)[C@H](CCCCN)NC(=O)[C@H](CCCCN)NC(=O)[C@H](CC(C)C)NC(=O)[C@H](CC(C)C)NC(=O)[C@H](CCCCN)NC(=O)[C@H](CCSC)NC(=O)[C@H](Cc1c[nH]c2ccccc12)NC(=O)[C@@H](N)CCCCN)C(=O)N[C@@H](CC(C)C)C(=O)N[C@@H](CCCCN)C(N)=O [I] (H-KWMKLLKKILK-NH2) | 2,3 µmol.l^-1 | 9,5 µmol.l^-1 | 12,7 µmol.l^-1 | 8,0 µmol.l^-1 | 17,7 µmol.l^-1 | 13,5 µmol.l^-1 | 3,2 µmol.l^-1 | >100 µmol/L | 5,8 µmol.l^-1 | 2,9 µmol.l^-1 | >400 | 2,3x10^5 / 2,3x10^5 CFU/hole | 6.8x10^1 CFU/implant | CFU/hole [17]: 1,3x10^4 CFU/hole; CFU/implant ([10]; cement without peptide 2,6x10^6): 0 CFU/implant; CFU/implant [18]: 0 CFU/implant; CFU/implant (MRSA 6271 [11]; cement without peptide 1.1x10^6): 0 CFU/implant; CFU/implant [19]: 1,1x10^3 CFU/implant; CFU/implant (P. aeruginosa 5482 [13]; cement without peptide 6x10^5): 7.0x10^2 CFU/implant
CC[C@H](C)[C@H](NC(=O)[C@H](CCCCN)NC(=O)[C@H](CCCCN)NC(=O)[C@H](CC(C)C)NC(=O)[C@H](CC(C)C)NC(=O)[C@H](CCCCN)NC(=O)[C@H](CCSC)NC(=O)[C@H](Cc1c[nH]c2ccccc12)NC(=O)[C@H](CCCCN)NC(=O)CCN)C(=O)N[C@@H](CC(C)C)C(=O)N[C@@H](CCCCN)C(N)=O [Peptide V] (H-[βAla]KWMKLLKKILK-NH2) | 1,8 µmol.l^-1 | 11,3 µmol.l^-1 | 6,8 µmol.l^-1 | 5,7 µmol.l^-1 | 10,0 µmol.l^-1 | 11,3 µmol.l^-1 | 2,8 µmol.l^-1 | 59,0 µmol.l^-1 | 7,0 µmol.l^-1 | 2,8 µmol.l^-1 | 270 | – | – | CFU/hole (P. aeruginosa 5482 [20]): 2,0x10^5 CFU/hole; CFU/hole [21]: 4,0 CFU/hole
